In assay [1] the target is T1, PipAf (Pip; LCD from A. friuliensis) (Actinoplanes friuliensis, UniProt U5VYY1).
T1 construct: gene AFR_18570; full length, N-terminal His-tag (pET30 Ek/LIC), E. coli; monomer 339 residues, ~36 kDa, homodimer
T1 sequence (U5VYY1 1-339): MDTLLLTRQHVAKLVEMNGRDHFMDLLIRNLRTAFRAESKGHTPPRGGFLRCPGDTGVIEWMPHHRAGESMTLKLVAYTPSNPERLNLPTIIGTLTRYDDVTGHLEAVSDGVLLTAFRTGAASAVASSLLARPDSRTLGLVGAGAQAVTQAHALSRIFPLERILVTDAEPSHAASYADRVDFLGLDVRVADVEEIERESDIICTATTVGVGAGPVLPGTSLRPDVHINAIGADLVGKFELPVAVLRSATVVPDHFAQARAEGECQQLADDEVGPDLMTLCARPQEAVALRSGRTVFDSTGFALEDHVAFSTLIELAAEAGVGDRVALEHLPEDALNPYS
As to the kind of experiment: X-ray crystal structure ([…] Å). Format: binding. The settings on record: crystallised with 1 mM NAD+; cofactor modelled as NADH; one NADH per monomer.

For assay [2], the target named is T1, PipAf (Pip; LCD from A. friuliensis). In words: X-ray crystal structure ([…] Å). Format: binding. To be noted: co-crystallised with 140 mM lysine and 1 mM NAD+; NADH bound; pH 8.5; active site.
Assay [3] concerns the target lysine cyclodeaminase PipAf from Actinoplanes friuliensis (Actinoplanes friuliensis). As to the kind of experiment: SEC; gel filtration on Superdex 200, 150 mM NaCl, 25 mM HEPES pH 7.4; main peak corresponds to a dimer. Background: In gel filtration, larger molecules generally elute earlier.

Regarding `NC(=O)C1=CN([C@@H]2O[C@H](COP(=O)(O)OP(=O)(O)OC[C@H]3O[C@@H](n4cnc5c(N)ncnc54)[C@H](O)[C@@H]3O)[C@@H](O)[C@H]2O)C=CC1` [NADH], the “X-ray crystal structure (1.3 Å)” value in assay [1] is on record as “One molecule NADH binds per monomer via a canonical Rossman fold”.
Consider `NCCCC[C@H](N)C(=O)O` [lysine], for which the “X-ray crystal structure (1.4 Å)” value in assay [2] is reported as “Lysine binds in the active site running parallel to the nicotinamide ring”.
By stoichiometry N is commonly meant a count of units in the complex or per binding partner. As to “lysine cyclodeaminase PipAf from Actinoplanes friuliensis (enzyme)”, the stoichiometry N in assay [3] was 2.
